One series relates to L6. Description: Cytotoxicity against rat L6 cells after 70 hrs by alamar blue assay. The format is cell-based. As to conditions: L6, 70 h. (Alamar Blue is a resazurin reagent that responds to reducing activity.)
The next series concerns Trypanosoma brucei. Description: Antitrypanosomal activity against bloodstream form of Trypanosoma brucei s427 after 72 hrs by MTT assay. Conditions: s427, 72 h. In kind it is functional, organism-based. On the technique in general: Tetrazolium dyes change colour on reduction, which living cells bring about.
In series [1] the test system is Trypanosoma brucei rhodesiense. Description: Antitrypanosomal activity against bloodstream form of Trypanosoma brucei rhodesiense STIB900 after 70 hrs by alamar blue assay. In kind it is functional, organism-based. As to conditions: STIB900, 70 h.
Series [2] in a line: Chemical stability of the compound in 100 mM phosphate buffer at pH 7.4. The format is physicochemical.
Series [3] concerns Trypanosoma brucei rhodesiense. Description: Antitrypanosomal activity against bloodstream form of Trypanosoma brucei rhodesiense STIB900 infected in NMRI mouse assessed as suppression of parasitemia level in mouse tail blood at 50 mg/kg, ip qd for 4 consecutive days measured 5 days post infection. In kind it is functional, organism-based. More on the design: dose 50 mg/kg.
Series [4] relates to Trypanosoma brucei rhodesiense. Description: Antitrypanosomal activity against bloodstream form of Trypanosoma brucei rhodesiense STIB900 infected in NMRI mouse assessed as day of parasitemia relapse at 50 mg/kg, ip qd for 4 consecutive days. The format is functional.
Series [5] relates to Trypanosoma brucei rhodesiense. Description: Antitrypanosomal activity against bloodstream form of Trypanosoma brucei rhodesiense STIB900 infected in NMRI mouse assessed as suppression of parasitemia level in mouse tail blood at 5 mg/kg, ip qd for 4 consecutive days measured 5 days post infection. The format is functional, organism-based. More on the design: dose 5 mg/kg.
For series [6], the system named is Trypanosoma brucei rhodesiense. Description: Antitrypanosomal activity against bloodstream form of Trypanosoma brucei rhodesiense STIB900 infected in NMRI mouse assessed as suppression of parasitemia level in mouse tail blood at 10 mg/kg, ip qd for 4 consecutive days measured 5 days post infection. The format is functional, organism-based. Also noted: dose 10 mg/kg.

The values that follow come from ChEMBL document CHEMBL1641541, “Synthesis and antitrypanosomal evaluation of derivatives of N-benzyl-1,2-dihydroquinolin-6-ols: Effect of core substitutions and salt formation” (Bioorg Med Chem, 2011).

SMILES strings stand for the structures. Activity calls are given as the source filed them. The rule behind the calls is not given here.

One may read the IC50 as the concentration at which inhibition is half-maximal. For the compound `CC(=O)Oc1ccc2c(c1)C(c1ccccc1)=CC(C)(C)N2Cc1ccccc1`, the IC50 with L6 stood at 49 µM; with Trypanosoma brucei, 20 µM; in series [1], 4.5 µM.
Take `COc1ccccc1CN1c2ccc(O)cc2C(C)=CC1(C)C.Cl`: the IC50 came out at 12 µM with L6, 0.045 µM with Trypanosoma brucei and 0.014 µM in series [1]. Besides, the Stability entry in series [2] is “Unstable”. In addition, in series [3], the outcome was Active.
For the compound `CC(=O)Oc1cc2c(cc1-c1ccc(C(F)(F)F)cc1)N(Cc1ccccc1)C(C)(C)C=C2C`, the IC50 was above 190 µM with L6, 15 µM with Trypanosoma brucei and 9 µM in series [1].
In the case of `COc1ccccc1CN1c2ccc(OC(C)=O)cc2C(C)=CC1(C)C`, the IC50 with L6 stood at 17 µM; in the series with Trypanosoma brucei, 0.041 µM; in series [1] it was 0.011 µM. Also, the outcome in series [3] was Active.
In the case of `CC1=CC(C)(C)N(Cc2ccc(F)c(F)c2)c2ccc(O)cc21`, the values for the IC50 (with L6; in the series on Trypanosoma brucei; in series [1]) were 11 µM, 0.068 µM and 0.051 µM, respectively.
Turning to `CCOc1ccc2c(c1)C(C)=CC(C)(C)N2Cc1ccc(F)c(F)c1`, the figures for the IC50 (with L6; in series [1]) were 90 µM and 140 µM, respectively. Further, the outcome in series [3] and in series [4] was inactive.
For the compound `CC(=O)Oc1cc2c(cc1C)N(Cc1ccccc1)C(C)(C)C=C2C`, in the series with Trypanosoma brucei, half-maximal inhibition (IC50) required 0.031 µM.
As to `CC(=O)Oc1cc2c(cc1Cl)N(Cc1ccccc1)C(C)(C)C=C2C`, the IC50 came out at 22 µM in the series with L6, 0.22 µM with Trypanosoma brucei and 0.042 µM in series [1].
Take `N=C(N)c1ccc(OCCCCCOc2ccc(C(=N)N)cc2)cc1` [PENTAMIDINE]: the IC50 with L6 came out at 25 µM; with Trypanosoma brucei, 0.012 µM; in series [1], 0.0013 µM. In series [5], the outcome was Active.
On to `CC1=CC(C)(C)N(Cc2ccccc2)c2ccc(O)cc21.Cl`, for which the IC50 in the series on L6 is 11 µM; in the series on Trypanosoma brucei, 0.038 µM; in series [1], 0.013 µM. Moreover, the Stability entry in series [2] is “Unstable”. For the same compound, the result in series [3] was Active.
`CCOc1ccc2c(c1)C(C)=CC(C)(C)N2Cc1ccccc1`: the IC50 is 97 µM in the series with L6 and 41 µM in series [1]. The outcome in series [4] was inactive.
For `CC(=O)Oc1c(Cl)cc2c(c1Cl)C(C)=CC(C)(C)N2Cc1ccccc1`, the results for the IC50 (in the series with L6; with Trypanosoma brucei; in series [1]) were 110 µM, 0.49 µM and 0.072 µM, respectively.
The matching figures for `CC(=O)Oc1ccc2c(c1)C(C)=CC(C)(C)N2Cc1ccc(F)c(F)c1`: 17 µM, 0.079 µM and 0.025 µM.
Turning to `Cc1ccc(C(=O)Nc2ccc(S(=O)(=O)O)c3cc(S(=O)(=O)O)cc(S(=O)(=O)O)c23)cc1NC(=O)c1cccc(NC(=O)Nc2cccc(C(=O)Nc3cc(C(=O)Nc4ccc(S(=O)(=O)O)c5cc(S(=O)(=O)O)cc(S(=O)(=O)O)c45)ccc3C)c2)c1` [SURAMIN], in the series with Trypanosoma brucei, the IC50 is 0.11 µM.
Still for that read-out and setting: with `COc1cc(OC(C)=O)cc2c1N(Cc1ccccc1)C(C)(C)C=C2C` the figure was above 100 µM.
Consider `CC(=O)Oc1ccc2c(c1)C(C)=CC(C)(C)N2Cc1ccccc1`, for which the IC50 in the series on L6 was found to be 18 µM; with Trypanosoma brucei it was 0.058 µM; in series [1] it was 0.012 µM. In addition, the Activity in series [4] (route intraperitoneal) worked out at 12.75 days.
For the compound `CC(=O)Oc1ccc2c(c1)C(C)=CC(C)(C)N2Cc1ccc(C(C)C)cc1`, the values for the IC50 (in the series on L6; in the series on Trypanosoma brucei; in series [1]) were 10 µM, 0.97 µM and 0.28 µM, respectively.
As for `N=C(N)c1ccc(/N=N/Nc2ccc(C(=N)N)cc2)cc1` [DIMINAZENE], the IC50 in the series on L6 is 5 µM; in series [1], 0.0058 µM. For the same compound, the outcome in series [6] was Active.
For the compound `CC(=O)Oc1cc(C)c2c(c1)C(C)=CC(C)(C)N2Cc1ccccc1`, the results for the IC50 (with L6; in the series with Trypanosoma brucei; in series [1]) were 48 µM, 9.2 µM and 43 µM, respectively.
